The record followed here is patent US20050080076A1 (Xanodyne Pharmacal, Inc., priority 2003, published 2005).

As a reminder, the Ki is a dissociation constant, usually derived from enzyme kinetics or from competition with a known ligand. Usually bioavailability stands for dose-corrected exposure relative to a reference, in per cent. By fraction unbound is commonly meant free concentration divided by total concentration.

The target of one series is Dopamine D1 (Homo sapiens, UniProt P21728). The series can be described thus: Receptor binding, Dopamine D1. On the procedure:
Receptor-ligand binding studies were performed as known to one skilled in the art.
Dopamine receptor affinity included binding to D1, D2, D3, D4, and D5 receptors. Serotonin receptor affinity included binding to 5-HT1A, 5-HT2A, 5-HT2B, 5-HT2, 5-HT5A, 5-HT6, and 5-HT7 receptors. Alpha adrenergic receptor affinity included binding to α1A, α1B, α1C, α2A, α2B, and α2C receptors. Muscarinic receptor affinity included binding to M1, M2, M3, M4, and M5 receptors. Binding to the histamine H1 receptor, the calcium ion channel receptor, and the sodium ion channel receptor were also evaluated. […] Sulfoxide indicates the sulfoxide metabolite. […] Ki (the inhibition constants of binding) indicate binding affinity.

The target of a further series is Dopamine D2 (Homo sapiens, UniProt P14416). The series can be described thus: Receptor binding, Dopamine D2. As to the method:
(§1) Receptor-ligand binding studies were performed as known to one skilled in the art. Compounds evaluated were LMP, the parent compound, the NDM LMP metabolite of LMP, and the sulfoxide metabolite of LMP. These studies verified receptor binding and affinity by the parent compound, as well as identified other potential receptors for the parent compound and its metabolites, and identified and verified receptors and receptor affinity for the metabolites.
(§2) Dopamine receptor affinity included binding to D1, D2, D3, D4, and D5 receptors. Serotonin receptor affinity included binding to 5-HT1A, 5-HT2A, 5-HT2B, 5-HT2, 5-HT5A, 5-HT6, and 5-HT7 receptors. Alpha adrenergic receptor affinity included binding to α1A, α1B, α1C, α2A, α2B, and α2C receptors. Muscarinic receptor affinity included binding to M1, M2, M3, M4, and M5 receptors. Binding to the histamine H1 receptor, the calcium ion channel receptor, and the sodium ion channel receptor were also evaluated. In each of the tables, the following abbreviations are used: LMP indicates the parent compound levomepromazine. NDM LMP indicates the N-desmethyl (N-desmethyl) metabolite. Sulfoxide indicates the sulfoxide metabolite. […] Ki (the inhibition constants of binding) indicate binding affinity.

The target of a further series is Serotonin 5-HT2A (Homo sapiens, UniProt P28223). The series can be described thus: Receptor binding, Serotonin 5-HT2A. On the procedure: as §1, §2
The target of another series is T1, Serotonin 5-HT2C (Homo sapiens, UniProt P28335).
T1 sequence (P28335 33-458): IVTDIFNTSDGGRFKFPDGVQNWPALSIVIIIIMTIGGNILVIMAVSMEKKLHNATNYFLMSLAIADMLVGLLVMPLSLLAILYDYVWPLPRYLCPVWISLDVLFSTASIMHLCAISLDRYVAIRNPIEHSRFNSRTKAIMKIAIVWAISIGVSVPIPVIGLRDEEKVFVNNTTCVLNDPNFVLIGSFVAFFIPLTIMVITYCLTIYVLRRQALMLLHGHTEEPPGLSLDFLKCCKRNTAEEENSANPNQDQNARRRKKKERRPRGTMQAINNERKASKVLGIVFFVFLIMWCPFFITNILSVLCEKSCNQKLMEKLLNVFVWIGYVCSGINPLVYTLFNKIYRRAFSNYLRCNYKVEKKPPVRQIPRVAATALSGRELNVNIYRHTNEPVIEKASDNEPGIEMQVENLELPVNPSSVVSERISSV
The series can be described thus: Receptor binding, Serotonin 5-HT2C. As to the method:
as §1, §2

In another series the target is Adrenergic α1C (Homo sapiens, UniProt P35348). The series can be described thus: Receptor binding, Adrenergic α1C. On the procedure: Receptor-ligand binding studies were performed as known to one skilled in the art. […] Binding to the histamine H1 receptor, the calcium ion channel receptor, and the sodium ion channel receptor were also evaluated. […] Sulfoxide indicates the sulfoxide metabolite. […] Ki (the inhibition constants of binding) indicate binding affinity.

The next series has as its target Adrenergic α2A (Homo sapiens, UniProt P08913). The series can be described thus: Receptor binding, Adrenergic α2A. On the procedure: as §1, §2
A further series addresses T2, Adrenergic α2B (Homo sapiens, UniProt P18089).
T2 sequence (P18089 1-450): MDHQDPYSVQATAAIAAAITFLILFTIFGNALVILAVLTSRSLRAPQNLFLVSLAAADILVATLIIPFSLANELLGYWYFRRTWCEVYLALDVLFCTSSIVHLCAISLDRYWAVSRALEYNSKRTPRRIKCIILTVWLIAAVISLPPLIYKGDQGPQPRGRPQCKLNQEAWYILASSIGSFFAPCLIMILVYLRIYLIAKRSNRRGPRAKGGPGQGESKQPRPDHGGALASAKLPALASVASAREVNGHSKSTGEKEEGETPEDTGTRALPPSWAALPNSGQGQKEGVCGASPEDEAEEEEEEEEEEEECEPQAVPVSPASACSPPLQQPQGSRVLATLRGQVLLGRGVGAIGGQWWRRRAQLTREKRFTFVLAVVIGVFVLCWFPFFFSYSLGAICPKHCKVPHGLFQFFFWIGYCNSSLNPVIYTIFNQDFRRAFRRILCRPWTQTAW
The series can be described thus: Receptor binding, Adrenergic α2B. As to the method: as §1, §2

A further series relates to dopamine receptors. The series can be described thus: Receptor affinity summary, dopamine receptors. The series is classed as binding. More on the design: key to Relative Affinity: ≧ indicates greater or equal affinity; = indicates about the same affinity; − indicates no affinity. The note with it: for Relative Affinity: Dopamine. On the procedure: as §1, §2
The next series concerns serotonin receptors. The series can be described thus: Receptor affinity summary, serotonin receptors. The series is classed as binding. More on the design: key to Relative Affinity: ≧ indicates greater or equal affinity; = indicates about the same affinity; − indicates no affinity. The note with it: for Relative Affinity: Serotonin. As to the method:
as §1, §2

The next series is described as follows: Serum protein binding. It is filed as in vitro ADME.
A short description of series [1]: Serum concentrations and bioavailability after LMP administration. It is filed as in vivo.
Series [2] concerns human colon carcinoma cell line (CACO-2 Model). The series can be described thus: Intestinal absorption assay (CACO-2 Model). The series is classed as in vitro ADME.
For another series, the target named is T3, P-glycoprotein (p-gp) (Homo sapiens, UniProt P08183).
T3 construct: using a human colon carcinoma cell line (CACO-2 Model); endogenous in cells; host or cells: CACO-2 (human colon carcinoma cell line)
The series can be described thus: P-glycoprotein efflux in CACO-2 Model. It is filed as in vitro ADME. (Passage across Caco-2 layers is used to estimate intestinal permeability.)

The structures appear in SMILES notation.

Serotonin 5-HT2A, sequence (P28223 whole entry): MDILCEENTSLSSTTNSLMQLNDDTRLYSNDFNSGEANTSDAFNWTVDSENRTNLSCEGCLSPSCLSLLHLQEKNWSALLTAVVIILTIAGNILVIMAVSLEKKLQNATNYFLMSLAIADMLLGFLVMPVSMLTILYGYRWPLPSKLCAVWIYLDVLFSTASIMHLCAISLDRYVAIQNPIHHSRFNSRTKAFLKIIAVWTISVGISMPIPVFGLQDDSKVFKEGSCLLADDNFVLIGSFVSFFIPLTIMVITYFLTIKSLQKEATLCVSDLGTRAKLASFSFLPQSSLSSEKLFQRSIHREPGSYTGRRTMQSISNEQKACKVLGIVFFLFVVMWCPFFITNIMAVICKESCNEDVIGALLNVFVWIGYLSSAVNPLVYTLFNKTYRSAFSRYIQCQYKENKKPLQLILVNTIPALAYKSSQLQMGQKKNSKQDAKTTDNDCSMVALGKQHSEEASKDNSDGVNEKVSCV
Dopamine D2, sequence (P14416 whole entry): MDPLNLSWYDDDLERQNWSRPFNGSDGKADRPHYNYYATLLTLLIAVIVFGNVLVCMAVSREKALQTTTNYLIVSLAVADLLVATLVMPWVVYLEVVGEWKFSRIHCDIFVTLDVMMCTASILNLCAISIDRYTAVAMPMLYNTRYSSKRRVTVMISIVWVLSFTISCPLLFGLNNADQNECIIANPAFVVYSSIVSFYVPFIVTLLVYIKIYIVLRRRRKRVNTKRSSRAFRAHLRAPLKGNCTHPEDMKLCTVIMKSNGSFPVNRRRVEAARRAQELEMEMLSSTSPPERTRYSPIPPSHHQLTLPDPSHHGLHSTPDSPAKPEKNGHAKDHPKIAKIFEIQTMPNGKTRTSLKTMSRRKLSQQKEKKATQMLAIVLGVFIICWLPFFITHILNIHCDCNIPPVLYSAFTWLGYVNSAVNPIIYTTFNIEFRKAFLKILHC
T3 sequence (P08183 whole entry): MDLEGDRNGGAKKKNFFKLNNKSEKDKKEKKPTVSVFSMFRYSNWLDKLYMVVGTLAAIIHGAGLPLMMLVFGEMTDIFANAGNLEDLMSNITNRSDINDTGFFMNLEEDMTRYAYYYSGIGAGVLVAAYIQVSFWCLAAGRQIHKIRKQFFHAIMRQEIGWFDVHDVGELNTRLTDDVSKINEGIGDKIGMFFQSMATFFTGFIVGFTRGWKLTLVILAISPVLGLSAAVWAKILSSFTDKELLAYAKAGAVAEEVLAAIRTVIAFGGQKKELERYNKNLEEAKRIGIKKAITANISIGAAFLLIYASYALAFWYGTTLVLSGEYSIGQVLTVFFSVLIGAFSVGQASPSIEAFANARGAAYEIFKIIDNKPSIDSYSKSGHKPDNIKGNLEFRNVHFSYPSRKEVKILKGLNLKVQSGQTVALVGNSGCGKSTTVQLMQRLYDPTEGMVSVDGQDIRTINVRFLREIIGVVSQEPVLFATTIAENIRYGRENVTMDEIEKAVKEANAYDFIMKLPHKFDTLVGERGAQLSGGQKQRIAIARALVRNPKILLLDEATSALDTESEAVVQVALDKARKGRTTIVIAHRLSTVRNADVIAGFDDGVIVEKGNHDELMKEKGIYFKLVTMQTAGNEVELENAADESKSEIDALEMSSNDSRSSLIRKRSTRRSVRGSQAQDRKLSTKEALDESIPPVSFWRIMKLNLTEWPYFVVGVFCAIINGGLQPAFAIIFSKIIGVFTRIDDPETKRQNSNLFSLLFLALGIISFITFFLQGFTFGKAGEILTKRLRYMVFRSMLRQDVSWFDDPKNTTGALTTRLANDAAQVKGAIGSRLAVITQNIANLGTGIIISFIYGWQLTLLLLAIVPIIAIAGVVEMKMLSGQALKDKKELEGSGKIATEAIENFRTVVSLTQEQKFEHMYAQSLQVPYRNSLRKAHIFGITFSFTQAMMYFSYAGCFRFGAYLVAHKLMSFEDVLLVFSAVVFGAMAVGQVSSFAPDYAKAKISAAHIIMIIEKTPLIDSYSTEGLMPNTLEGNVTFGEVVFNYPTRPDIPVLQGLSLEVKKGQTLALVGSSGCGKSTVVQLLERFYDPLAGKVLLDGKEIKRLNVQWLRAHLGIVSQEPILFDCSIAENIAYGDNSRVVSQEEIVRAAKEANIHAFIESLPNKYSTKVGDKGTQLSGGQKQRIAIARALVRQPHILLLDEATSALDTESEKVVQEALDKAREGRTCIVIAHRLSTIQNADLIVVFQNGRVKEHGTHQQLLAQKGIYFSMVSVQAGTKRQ
Adrenergic α2A, sequence (P08913 whole entry): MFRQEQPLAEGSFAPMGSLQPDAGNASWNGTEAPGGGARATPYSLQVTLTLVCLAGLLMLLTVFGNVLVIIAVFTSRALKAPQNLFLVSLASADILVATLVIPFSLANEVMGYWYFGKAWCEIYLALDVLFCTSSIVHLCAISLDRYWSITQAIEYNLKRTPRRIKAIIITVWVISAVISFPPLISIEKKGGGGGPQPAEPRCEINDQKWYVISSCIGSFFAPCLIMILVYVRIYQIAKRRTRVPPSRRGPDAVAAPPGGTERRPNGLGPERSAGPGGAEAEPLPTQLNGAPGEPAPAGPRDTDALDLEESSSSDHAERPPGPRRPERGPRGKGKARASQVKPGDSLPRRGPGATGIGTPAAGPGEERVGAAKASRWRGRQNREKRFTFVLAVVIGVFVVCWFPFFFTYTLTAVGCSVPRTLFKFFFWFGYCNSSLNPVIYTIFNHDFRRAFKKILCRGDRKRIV
Dopamine D1, sequence (P21728 whole entry): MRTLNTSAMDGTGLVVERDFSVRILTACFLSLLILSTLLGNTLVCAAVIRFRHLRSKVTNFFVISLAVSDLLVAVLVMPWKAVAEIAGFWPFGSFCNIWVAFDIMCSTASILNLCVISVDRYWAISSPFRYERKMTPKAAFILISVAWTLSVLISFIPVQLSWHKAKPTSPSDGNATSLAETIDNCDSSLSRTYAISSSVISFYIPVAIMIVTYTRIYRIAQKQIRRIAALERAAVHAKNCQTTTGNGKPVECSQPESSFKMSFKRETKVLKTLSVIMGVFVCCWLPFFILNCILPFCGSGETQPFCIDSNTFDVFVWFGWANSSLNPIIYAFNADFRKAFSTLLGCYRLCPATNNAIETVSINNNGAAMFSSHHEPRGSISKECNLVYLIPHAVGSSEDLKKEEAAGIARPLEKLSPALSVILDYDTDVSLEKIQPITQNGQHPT
Adrenergic α1C, sequence (P35348 whole entry): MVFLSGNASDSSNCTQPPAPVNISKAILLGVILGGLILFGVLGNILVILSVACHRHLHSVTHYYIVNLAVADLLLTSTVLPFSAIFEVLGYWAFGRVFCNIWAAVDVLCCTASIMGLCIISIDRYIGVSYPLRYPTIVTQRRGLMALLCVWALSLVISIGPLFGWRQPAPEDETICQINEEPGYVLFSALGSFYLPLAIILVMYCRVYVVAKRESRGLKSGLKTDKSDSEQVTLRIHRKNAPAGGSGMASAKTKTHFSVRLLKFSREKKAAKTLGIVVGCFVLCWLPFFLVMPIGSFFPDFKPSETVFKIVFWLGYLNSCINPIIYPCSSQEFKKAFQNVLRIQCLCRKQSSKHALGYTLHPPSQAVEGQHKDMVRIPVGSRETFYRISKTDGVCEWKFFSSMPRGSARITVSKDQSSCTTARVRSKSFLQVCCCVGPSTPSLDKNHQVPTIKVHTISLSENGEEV

Turning to `COc1ccc2c(c1)N(C[C@H](C)CN(C)C)c1ccccc1[S+]2[O-]` (stereo partly drawn) [Sulfoxide, levomepromazine sulfoxide], the Ki on Dopamine D1 is over 10000 nM; at Dopamine D2, over 10000 nM; at Serotonin 5-HT2A, 410 nM; at Serotonin 5-HT2C, 1980 nM; on Adrenergic α1C it was 193 nM; on Adrenergic α2A, over 10000 nM. The Ki on Adrenergic α2B was over 10000 nM. The “binding affinity to dopamine receptors (in words)” value with dopamine receptors is reported as “essentially no binding affinity”. The “Relative Affinity” value in the series with dopamine receptors and in the series on serotonin receptors was “−” each time. The “binding affinity to serotonin receptors (in words)” value with serotonin receptors is reported as “essentially no binding affinity”. For the same molecule, the “free fraction (less protein binding), relative” value in the series “Serum protein binding” (relative to LMP or NDM LMP) is 20 fold. In addition, the “sulfoxide detection after LMP” value in series [1] (25 mg LMP intramuscularly) is listed as “no sulfoxide was detected”. Besides, the “sulfoxide concentrations relative to parent compound” value in series [1] (LMP 50 mg to 350 mg orally daily for one week) came out at 2.5 times. For the same molecule, in [1] (LMP intravenously, bioavailability study), the “sulfoxide formation after LMP” value was “sulfoxide formation was detected although to a much lower extent compared to the oral formulation”. Moreover, in [1] (in vivo), the “total serum concentrations relative to parent LMP or NDM LMP” value is given as 1.5-3.0 fold.
`COc1ccc2c(c1)N(C[C@H](C)CN(C)C)c1ccccc1S2` [LMP, Levomepromazine]: the Ki was 8 nM on Dopamine D2, under 4 nM at Serotonin 5-HT2A, 8 nM on Serotonin 5-HT2C and 25 nM at Adrenergic α2B. Also, the bioavailability in series [1] (in vivo, 25 mg oral formulation compared to 25 mg intravenous dose, read-out: absolute bioavailability) was about 20%.
Turning to `CNCC(C)CN1c2ccccc2Sc2ccc(OC)cc21` (stereo not drawn) [NDM LMP, R(+) 2-methoxy-10-2-methyl-3-monomethylaminopropyl phenothiazine], the Ki at Dopamine D1 is 99 nM; at Dopamine D2, 17 nM; on Serotonin 5-HT2A, under 4 nM; on Serotonin 5-HT2C, 9 nM; on Adrenergic α2A it was 239 nM; at Adrenergic α2B, 48 nM. Moreover, the “Relative Affinity” value in the series on dopamine receptors and in the series on serotonin receptors was “LMP = NDM LMP” each time. In addition, the fraction unbound in the series “Serum protein binding” (serum) amounted to 0.01. Moreover, in series [2], the “apical to basolateral permeability coefficient relative to parent LMP” value is given as 1.5 fold. For the same molecule, the “gut wall (enterocyte) metabolism relative to parent LMP” value in [2] was “occurs to a lower extent”. In [2], the “percent recovered through the system relative to parent LMP” value is 1.5-2.0 fold. Besides, on P-glycoprotein (p-gp), the “transport by P-glycoprotein relative to parent LMP” value is “to a lesser degree than the parent LMP”. Further, the “inhibition of efflux relative to parent LMP” value at P-glycoprotein (p-gp) (in the presence of p-gp inhibitor verapamil) is on record as “at least one-half lower”. Moreover, the “relative efflux to influx ratio, reduction versus parent LMP” value at P-glycoprotein (p-gp) (through the enterocyte, less than parent LMP) is “at least 50%”.
